Results: patent US7223865B2, “Chromogenic compounds, and use thereof as enzyme substrates” (Biomerieux, priority 2003, dated 2007)

How the values were obtained:
Assay in all cases: L-alanine-aminopeptidase activity on gelled medium, Example 8
Format in all cases: cell-based
Design in all cases: key to growth: ++ means good growth; + means moderate growth; +/− means poor growth; NG means no growth
[1] = test system: Salmonella typhimurium (NCTC 74)
Protocol: (§1) A gelled medium comprising these three substrates is prepared as follows: 30 mg of each substrate are dissolved (heating) in 10 ml of sterile distilled water. Ten ml of this solution are then added to 90 ml of Columbia agar kept molten at 50° C.
(§2) Various strains of microorganisms derived from the NCTC collection (National Collection of Type Cultures, Colindale, UK) were seeded onto the media thus obtained according to multipoint inoculation: for each strain, a drop of 10 μl of a suspension at 0.5 McFarland is deposited onto each of the culture media.
(§3) The colonies formed were examined visually after incubation for 24 h and 48 h. The color and the growth of these colonies were noted.

[2] = test system: Enterococcus faecalis (NCTC 12697)
Protocol: as §1, §2, §3

[3] = test system: Enterococcus faecalis (NCTC 755)
Protocol: as §1, §2, §3

[4] = test system: Klebsiella pneumoniae (NCTC 10896)
Protocol: as §1, §2, §3

[5] = test system: Shigella sonnei (NCTC 9774)
Protocol: as §1, §2, §3

[6] = test system: Enterococcus faecium (NCTC 7171)
Protocol: as §1, §2, §3

[7] = test system: Salmonella poona (NCTC 4840)
Protocol: as §1, §2, §3

[8] = test system: Pseudomonas aeruginosa (NCTC 10662)
Protocol: as §1, §2, §3

[9] = test system: Enterobacter cloacae (NCTC 11936)
Protocol: as §1, §2, §3

[10] = test system: E. coli O157 (NCTC 12079)
Protocol: as §1, §2, §3

[11] = test system: Staphylococcus aureus (NCTC 6571)
Protocol: as §1, §2, §3

[12] = test system: Listeria monocytogenes (NCTC 11994)
Protocol: as §1, §2, §3

[13] = test system: Serratia marcescens (NCTC 10211)
Protocol: as §1, §2, §3

[14] = test system: Staphylococcus aureus (NCTC 11939)
Protocol: as §1, §2, §3

[15] = test system: Burkholderia cepacia (NCTC 10743)
Protocol: as §1, §2, §3

In the case of `C[C@H](N)C(=O)N[C@@H](C)C(=O)N[C@@H](C)C(=O)Nc1ccc(-c2c3ccccc3[n+](C)c3ccccc23)cc1.[Cl-]` [L-Ala-L-Ala-L-Ala-4-AP-10-MA], the color of colonies ([1]; 24 h) is reported as “Orange”, the growth ([1]; 24 h) is reported as “++” and the color of colonies ([1]; 48 h) is reported as “Orange”. For the same compound, the growth ([1]; 48 h) was “++”, the color of colonies ([2]; 24 h) was “Colorless” and the growth ([2]; 24 h) was “++”. The color of colonies ([2]; 48 h) was “Colorless”, the growth ([2]; 48 h) was “++” and the color of colonies ([3]; 24 h) was “Colorless”. For the same compound, the growth ([3]; 24 h) was “++”, the color of colonies ([3]; 48 h) was “Colorless” and the growth ([3]; 48 h) was “++”. The color of colonies ([4]; 24 h) was “Orange”, the growth ([4]; 24 h) was “++” and the color of colonies ([4]; 48 h) was “Orange”. The growth ([4]; 48 h) was “++”, the color of colonies ([5]; 24 h) was “Orange” and the growth ([5]; 24 h) was “++”. The color of colonies ([5]; 48 h) was “Orange”, the growth ([5]; 48 h) was “++” and the color of colonies ([6]; 24 h) was “Colorless”. For the same compound, the growth ([6]; 24 h) was “++”, the color of colonies ([6]; 48 h) was “Colorless” and the growth ([6]; 48 h) was “++”. For the same compound, the color of colonies ([7]; 24 h) was “Orange”, the growth ([7]; 24 h) was “++” and the color of colonies ([7]; 48 h) was “Orange”. The growth ([7]; 48 h) was “++”, the color of colonies ([8]; 24 h) was “Orange” and the growth ([8]; 24 h) was “++”. The color of colonies ([8]; 48 h) was “Orange”, the growth ([8]; 48 h) was “++” and the color of colonies ([9]; 24 h) was “Orange”. For the same compound, the growth ([9]; 24 h) was “++”, the color of colonies ([9]; 48 h) was “Orange” and the growth ([9]; 48 h) was “++”. The color of colonies ([10]; 24 h) was “Orange”, the growth ([10]; 24 h) was “++” and the color of colonies ([10]; 48 h) was “Orange”. For the same compound, the growth ([10]; 48 h) was “++”, the color of colonies ([11]; 24 h) was “Colorless” and the growth ([11]; 24 h) was “++”. The color of colonies ([11]; 48 h) was “Colorless”, the growth ([11]; 48 h) was “++” and the color of colonies ([12]; 24 h) was “Colorless”. For the same compound, the growth ([12]; 24 h) was “++”, the color of colonies ([12]; 48 h) was “Colorless” and the growth ([12]; 48 h) was “++”. The color of colonies ([13]; 24 h) was “Orange”, the growth ([13]; 24 h) was “++” and the color of colonies ([13]; 48 h) was “Orange”. The growth ([13]; 48 h) was “++”, the color of colonies ([14]; 24 h) was “Colorless” and the growth ([14]; 24 h) was “++”. For the same compound, the color of colonies ([14]; 48 h) was “Colorless”, the growth ([14]; 48 h) was “++” and the color of colonies ([15]; 24 h) was “Orange”. For the same compound, the growth ([15]; 24 h) was “++”, the color of colonies ([15]; 48 h) was “Orange” and the growth ([15]; 48 h) was “++”.
